US20110305637A1, “RADIOLABELLED PDE10 LIGANDS” (Janssen Pharmaceutica N.V., priority 2009, published 2011)
Values joined by “and” are separate entries in the source; they are usually repeats but may differ in a detail not shown here. Equal entries are not always repeated.

Experiment: Biodistribution study in male Wistar rats
Assay type: in vivo, rat
Protocol: (§1) The biodistribution study of [^18F]B-1 was carried out in male Wistar rats (body weight 250-350 g) at 2 min, 30 min and 60 min post injection (p.i.) (n=3/time point). Rats were injected with about 1.1 MBq of the tracer via tail vein under anesthesia (2.5% Isoflurane in O2 at 1 L/min flow rate) and sacrificed by decapitation at above specified time points. Blood and major organs were collected in tared tubes and weighed. The radioactivity in blood, organs and other body parts was measured using an automated gamma counter The distribution of radioactivity in different parts of the body at different time points p.i. of the tracer was calculated and expressed as percentage of injected dose (% ID), and as percentage of injected dose per gram tissue (% ID/g) for the selected organs. % ID is calculated as cpm in organ/total cpm recovered. For calculation of total radioactivity in blood, blood mass was assumed to be 7% of the body mass.
as §1, with “[^18F]B-2” for “[^18F]B-1”, “270-340” for “250-350”

[1] = 2 min p.i., % ID/g values normalized for the body weight
[2] = 2 min p.i., normalized for body weight
[3] = 30 min p.i., % ID/g values normalized for the body weight

Compound: [18F]CCCn1cc(-c2ccncc2)c(-c2ccc(OCc3ccc4ccccc4n3)cc2)n1 [[^18F]B-1]
- % ID in Carcass (2 min p.i.): 27.70 ± 0.7 % ID
- % ID in Cerebellum (2 min p.i.): 0.096 ± 0.0 % ID
- % ID in Cerebrum total (2 min p.i.): 0.4 % ID and 0.407 ± 0.1 % ID
- % ID in Cortex (2 min p.i.): 0.072 ± 0.01 % ID
- % ID in Heart (2 min p.i.): 0.87 ± 0.1 % ID
- % ID in Hippocampus (2 min p.i.): 0.013 ± 0.00 % ID
- % ID in Intestines (2 min p.i.): 8.89 ± 0.5 % ID
- % ID in Kidneys (2 min p.i.): 5.31 ± 0.7 % ID
- % ID in Liver (2 min p.i.): 48.20 ± 1.8 % ID
- % ID in Lungs (2 min p.i.): 2.79 ± 0.6 % ID
- % ID in Rest of cerebrum (2 min p.i.): 0.307 ± 0.05 % ID
- % ID in Spleen + Pancreas (2 min p.i.): 1.63 ± 0.1 % ID
- % ID in Stomach (2 min p.i.): 1.74 ± 0.2 % ID
- % ID in Striatum (2 min p.i.): 0.015 % ID and 0.015 ± 0.00 % ID
- % ID in Urine (2 min p.i.): 0.09 ± 0.0 % ID
- % ID/g in Blood (2 min p.i.): 0.19 ± 0.02 % ID/g
- % ID/g in Cerebellum (2 min p.i.): 0.39 ± 0.06 % ID/g
- % ID/g in Cerebrum + Cerebellum (2 min p.i.): 0.33 ± 0.05 % ID/g
- % ID/g in Cerebrum total (2 min p.i.): 0.31 ± 0.05 % ID/g
- % ID/g in Cortex (2 min p.i.): 0.40 ± 0.11 % ID/g
- % ID/g in Heart (2 min p.i.): 1.06 ± 0.20 % ID/g
- % ID/g in Liver (2 min p.i.): 3.79 ± 0.19 % ID/g
- % ID/g in Lungs (2 min p.i.): 2.36 ± 0.75 % ID/g
- % ID/g in Rest of cerebrum (2 min p.i.): 0.30 ± 0.04 % ID/g
- % ID/g in Spleen + Pancreas (2 min p.i.): 1.18 ± 0.17 % ID/g
- striatum/blood ratio [1]: 2.1
- striatum/cortex ratio [1]: 1.0
- striatum/hippocampus ratio [1]: 2.0
- total brain uptake of the tracer (2 min p.i., % of injected dose): ~0.5%
- % ID/g × kg in Blood [2]: 0.05 ± 0.00 % ID/g × kg
- % ID/g × kg in Cerebellum [2]: 0.100 ± 0.02 % ID/g × kg
- % ID/g × kg in Cerebrum + Cerebellum [2]: 0.08 ± 0.01 % ID/g × kg
- % ID/g × kg in Cerebrum total [2]: 0.080 ± 0.01 % ID/g × kg
- % ID/g × kg in Cortex [2]: 0.103 ± 0.03 % ID/g × kg
- % ID/g × kg in Heart [2]: 0.27 ± 0.05 % ID/g × kg
- % ID/g × kg in Hippocampus [2]: 0.052 ± 0.01 % ID/g × kg
- % ID/g × kg in Kidneys [2]: 0.57 ± 0.07 % ID/g × kg
- % ID/g × kg in Liver [2]: 0.97 ± 0.05 % ID/g × kg
- % ID/g × kg in Lungs [2]: 0.60 ± 0.19 % ID/g × kg
- % ID/g × kg in Rest of cerebrum [2]: 0.077 ± 0.01 % ID/g × kg
- % ID/g × kg in Spleen + Pancreas [2]: 0.30 ± 0.04 % ID/g × kg
- % ID/g × kg in Striatum [2]: 0.102 ± 0.01 % ID/g × kg
- % ID in Blood (30 min p.i.): 2.12 ± 0.1 % ID
- % ID in Carcass (30 min p.i.): 25.24 ± 1.7 % ID
- % ID in Cerebellum (30 min p.i.): 0.021 ± 0.0 % ID
- % ID in Cerebrum total (30 min p.i.): 0.158 ± 0.01 % ID
- % ID in Cortex (30 min p.i.): 0.018 ± 0.00 % ID
- % ID in Heart (30 min p.i.): 0.22 ± 0.0 % ID
- % ID in Hippocampus (30 min p.i.): 0.004 ± 0.00 % ID
- % ID in Intestines (30 min p.i.): 14.44 ± 3.0 % ID
- % ID in Kidneys (30 min p.i.): 1.55 ± 0.1 % ID
- % ID in Liver (30 min p.i.): 49.64 ± 5.3 % ID
- % ID in Lungs (30 min p.i.): 1.81 ± 0.0 % ID
- % ID in Rest of cerebrum (30 min p.i.): 0.122 ± 0.00 % ID
- % ID in Spleen + Pancreas (30 min p.i.): 0.42 ± 0.1 % ID
- % ID in Stomach (30 min p.i.): 4.60 ± 0.6 % ID
- % ID in Striatum (30 min p.i.): 0.014 ± 0.00 % ID
- % ID in Urine (30 min p.i.): 0.61 ± 0.3 % ID
- % ID/g in Blood (30 min p.i.): 0.12 ± 0.01 % ID/g
- % ID/g in Cerebellum (30 min p.i.): 0.09 ± 0.01 % ID/g
- % ID/g in Cerebrum + Cerebellum (30 min p.i.): 0.12 ± 0.01 % ID/g
- % ID/g in Cerebrum total (30 min p.i.): 0.12 ± 0.01 % ID/g
- % ID/g in Cortex (30 min p.i.): 0.11 ± 0.02 % ID/g
- % ID/g in Heart (30 min p.i.): 0.26 ± 0.02 % ID/g
- % ID/g in Hippocampus (30 min p.i.): 0.08 ± 0.01 % ID/g
- % ID/g in Kidneys (30 min p.i.): 0.64 ± 0.04 % ID/g
- % ID/g in Liver (30 min p.i.): 4.00 ± 0.37 % ID/g
- % ID/g in Lungs (30 min p.i.): 1.38 ± 0.11 % ID/g
- % ID/g in Rest of cerebrum (30 min p.i.): 0.12 ± 0.01 % ID/g
- % ID/g in Spleen + Pancreas (30 min p.i.): 0.27 ± 0.01 % ID/g
- % ID/g in Striatum (30 min p.i.): 0.41 ± 0.00 % ID/g
- striatum/blood ratio [3]: 3.5
- striatum/cerebellum ratio [3]: 4.6
- striatum/cortex ratio [3]: 3.9
- striatum/hippocampus ratio [3]: 5.1
